Consider five compounds from patent publication US6423494B1, “DR6 and uses thereof” (Millennium Pharmaceuticals, Inc., priority 1999, dated 2002).

The structures appear in SMILES notation.

This assay deals with colon cancer cell line SW-620. Put plainly: Drug sensitivity of colon cancer cell line SW-620 (NCI60 panel). In kind it is cell-based, human. Conditions: SW-620 colon cancer cell line, in which DR6 does not appear to be expressed (Northern analysis). How it is done: In order to identify genes involved in drug resistance, the expression various genes in drug resistant cancer cells was measured. The drug resistant cancer cell lines used were all members of the NCI60 panel of drug resistant cell lines. The cell lines in this panel are resistant to one or more chemotherapeutic compounds.
As for `O=C(O)CCCc1ccc(N(CCCl)CCCl)cc1` [chlorambucil], the “sensitivity of the cell line to the drug” value is recorded as “relatively sensitive”.
Turning to `N.N.[Cl][Pt][Cl]` [cisplatin], the “sensitivity of the cell line to the drug” value is “relatively sensitive”.
Regarding `COc1cccc2c1C(=O)c1c(O)c3c(c(O)c1C2=O)C[C@@](O)(C(=O)CO)C[C@@H]3O[C@H]1C[C@H](N)[C@H](O)[C@H](C)O1` [doxorubicin], the “sensitivity of the cell line to the drug” value is recorded as “relatively sensitive”.
In the case of `COc1cc([C@@H]2c3cc4c(cc3[C@@H](O[C@@H]3O[C@@H]5CO[C@@H](C)O[C@H]5[C@H](O)[C@H]3O)[C@H]3COC(=O)[C@H]23)OCO4)cc(OC)c1O` [etoposide] it was “relatively sensitive”.
Next, `CC[C@@]1(O)C(=O)OCc2c1cc1n(c2=O)Cc2cc3c(CN(C)C)c(O)ccc3nc2-1` [topotecan]: “relatively sensitive”.
